# Results taken from patent publication US20170172955A1, “Treatment of Mixed Dyslipidemia” (priority 2015, published 2017).
# Experiments:
# [1] = tested on: cholesterol and triglyceride synthesis; assay: Inhibition of plasma and hepatic cholesterol and triglyceride synthesis in apoB100/Lp(a) mice; format: in vivo, mouse
# Procedure: The apoB100/Lp(a) (cross of mice transgenic for human apoB100 and human apo(a)) mice) were obtained from Charles River. There were 8 animals per treatment group. […] Mice were acclimated for a minimum of 7 days to a reverse 12 hour light/12 hour dark cycle prior to administration of the first dose of test drug or vehicle. […] Test drugs and vehicle were given once daily. Thirty minutes after the eighth dose, 12.5 μCi [^14C] sodium acetate was administered. […] Individual plasma samples were acquired by placing whole blood samples into EDTA loaded centrifuge tubes and centrifuged. Plasma was transferred to new tubes and stored at −20° C. until assayed for [^14C] labeled cholesterol. Liver samples were flash frozen in liquid nitrogen and stored at −80° C. until assayed for [^14C] labeled cholesterol and triglycerides. Assay for plasma [^14C] labeled cholesterol. […] Additionally, 0.025 μCi […] (Perkin Elmer Life Sciences Inc. Boston, Mass.) was added to each sample, and to 2 or 3 spike controls in 7-mL scintillation vials, as an extraction internal standard. […] Samples were vortexed and saponified at 75° C. for 1 hour. After the samples cooled […] [^14C] labeled cholesterol was extracted with 2.5 mL petroleum ether per sample and shaken for 10 minutes, and then centrifuged for 10 minutes at 0° C. […] Each sample was then dissolved in 0.25 mL of 2 parts chloroform to 1 part per methanol by sonication. Five mL scintillant was added to each sample and the spike controls for direct [^3H] and [^14C] […] per minute (DPM) recording using a Packard 2500TR Tri-Carb Liquid Scintillation Analyzer. […] Assay for liver [^14C] labeled cholesterol and triglycerides. Frozen liver samples were kept on dry ice during sample weighing procedures and assay preparations. Each sample was homogenized in a solution of ice-cold methanol;0.5 N acetic acid. […] Samples were then vortexed and centrifuged for 20 minutes at 3000 rpm at room temperature to separate the phases. The lower chloroform layer was transferred to new vials. The remaining upper aqueous phase was extracted in like manner with 15 mL chloroform 2 more times. […] The aqueous phase was discarded and the chloroform phase was washed 2 times in like manner with 15 mL 1 part methanol to 1 part water, discarding the aqueous phase. The chloroform samples were evaporated under nitrogen gas, and resuspended in 600 μL chloroform and 30 μL removed for scintillation counting. Sample volumes were adjusted for corrected percent recovery and a calculated volume to load based on total liver weight. Calculated volumes were spotted onto TLC plates and dried in an 80° C. oven. After the plates had cooled to room temperature, they were developed in 102 mL isooctane:diethyl ether:glacial acetic acid, 75:25:2, respectively. Plates were dried in an 80° C. oven and allowed to cool to room temperature, wrapped in plastic wrap, and exposed to the phosphorimager screen. Imagequant software was used to quantitate cholesterol and triglyceride bands.
# plasma fibrinogen = assay: Fibrinogen levels in rats (electro immunoassay); format: in vivo, rat; settings: male Sprague-Dawley rats, 100 mg/kg/day oral, 14 days
# Procedure: Fifty-Six male Sprague-Dawley rats were obtained from Charles River Laboratories. All animals were allowed normal rat chow (Ralston-Purina) and water ad libitum in temperature-controlled rooms, under a 12-hour light, 12-hour dark cycle beginning with lights on at 6 AM. Rats were distributed to 7 groups of 8 rats per group. […] Control animals received vehicle alone. […] CI-719 is gemfibrozil. […] The plasma fibrinogen plasma levels were determined by electro immunoassay. […] Data are shown in FIG. 12 as mean±SEM of as percent of control fibrinogen levels. *p<0.001, two-sided unpaired t-test, compared to control.
# [2] = tested on: STAM model of non-alcoholic steatohepatitis (NASH)
# Procedure: Telmisartan (Micardis®) was purchased from Boehringer Ingelheim GmbH (Germany) and dissolved in pure water.
# Telmisartan was administered at a dose of 10 mg/kg once daily.
# Measurement of whole blood and plasma biochemistry: Eight-hour fasting blood samples were collected from facial vein at 3 days prior to termination.
# Eight-hour fasting blood glucose was measured in whole blood using Life Check (EIDIA Co. Ltd., Japan). For plasma biochemistry, eight-hour fasting blood was collected in polypropylene tubes with anticoagulant (Novo-Heparin, Mochida Pharmaceutical, Japan) and centrifuged at 1,000×g for 15 minutes at 4° C. The supernatant was collected and stored at −80° C. until use. Plasma insulin levels were quantified by Ultra Sensitive Mouse Insulin ELISA kit (Morinaga Institute of Biological Science, Inc., Japan).
# On the day of termination, non-fasting blood glucose was measured in whole blood using Life Check. For plasma biochemistry, non-fasting blood was collected in polypropylene tubes with anticoagulant (Novo-Heparin) and centrifuged at 1,000×g for 15 minutes at 4° C. The supernatant was collected and stored at −80° C. until use. Plasma ALT, AST, ALP, GGT, BUN, creatinine and total bilirubin levels were measured by FUJI DRI-CHEM 7000 (Fujifilm Corporation, Japan). Plasma ketone body levels were quantified by EnzyChrom™ Ketone Body Assay Kit (BioAssay Systems, USA). […]
# Histological analyses: For HE staining, sections were cut from paraffin blocks of liver tissue prefixed in Bouin's solution and stained with Lillie-Mayer's Hematoxylin (Muto Pure Chemicals Co., Ltd., Japan) and eosin solution (Wako Pure Chemical Industries). […] To visualize collagen deposition, Bouin's fixed liver sections were stained using picro-Sirius red solution (Waldeck, Germany). […]
# Statistical analyses were performed using Bonferroni Multiple Comparison Test on GraphPad Prism 6 (GraphPad Software Inc., USA). […] Results were expressed as mean±SD.
# The viability, clinical signs and behavior were monitored daily. Body weight was recorded before the treatment. […] The animals were sacrificed by exsanguination through direct cardiac puncture under isoflurane anesthesia (Pfizer Inc.) at 9 weeks of age.
# [3] = 3 mg/kg oral once daily, 8 doses
# [4] = STAM mice, telmisartan 10 mg/kg PO QD, Day 18, 8 hours of fasting
# [5] = STAM mice, telmisartan 10 mg/kg PO QD, termination (Day 21)
# [6] = telmisartan 10 mg/kg PO QD, n = 7
smiles,measurement,setting,value
"CCC(C)(C)C(=O)O[C@H]1C[C@@H](C)C=C2C=C[C@H](C)[C@H](CC[C@@H]3C[C@@H](O)CC(=O)O3)[C@H]21 [Simvastatin, simvastatin, reference compound]",inhibition of cholesterol synthesis as measured in plasma,[1]; 3 mg/kg,59%
same,lowering of cholesterol synthesis in liver tissue,[1]; 3 mg/kg,82%
same,"hepatic Cholesterol synthesis ([14C] sodium acetate), % Change from Vehicle",[1]; [3],−82 ± 8 %
same,"hepatic Triglycerides synthesis ([14C] sodium acetate), % Change from Vehicle",[1]; [3],4.0 ± 15%
"Cc1ccc(C)c(OCCCC(C)(C)C(=O)O)c1 [Gemfibrozil, gemfibrozil, reference compound]",reduction in plasma fibrinogen levels compared with control,plasma fibrinogen,31%
"CCCc1nc2c(C)cc(-c3nc4ccccc4n3C)cc2n1Cc1ccc(-c2ccccc2C(=O)O)cc1 [Telmisartan, reference compound]",Sirius Red positive area (mean ± SD),"[2]; STAM mice, telmisartan 10 mg/kg PO QD 6-9 wks",0.48 ± 0.09%
same,"NAFLD Activity score, NAS (mean ± SD)","[2]; STAM mice, telmisartan 10 mg/kg PO QD 6-9 wks, n = 7",2.6 ± 1.0
same,mortality during the treatment period,"[2]; STAM mice, telmisartan 10 mg/kg PO QD, before reaching Day 21",one mouse was found dead
same,Fasting blood glucose (mean ± SD),[2]; [4],742 ± 90 mg/dL
same,Plasma insulin (mean ± SD),[2]; [4],0.16 ± 0.04 ng/mL
same,Liver hydroxyl-proline (mean ± SD),[2]; [5],0.91 ± 0.21 μg/mg total protein
same,Liver triglyceride (mean ± SD),[2]; [5],31.7 ± 6.4 mg/g liver
same,Non-fasting blood glucose (mean ± SD),[2]; [5],856 ± 62 mg/dL
same,Plasma ALT (mean ± SD),[2]; [5],39 ± 15 U/L
same,Plasma AST (mean ± SD),[2]; [5],121 ± 38 U/L
same,Plasma ketone body (mean ± SD),[2]; [5],8.11 ± 3.27 mM
same,number of mice with Hepatocyte ballooning score 0 (None),[2]; [6],2
same,number of mice with Hepatocyte ballooning score 1 (Few balloon cells),[2]; [6],4
same,number of mice with Hepatocyte ballooning score 2 (Many cells/prominent ballooning),[2]; [6],1
same,number of mice with Lobular inflammation score 0 (No foci),[2]; [6],2
same,number of mice with Lobular inflammation score 1 (<2 foci/200x),[2]; [6],4
same,number of mice with Lobular inflammation score 2 (2-4 foci/200x),[2]; [6],1
same,number of mice with Steatosis score 0 (<5%),[2]; [6],1
same,number of mice with Steatosis score 1 (5-33%),[2]; [6],6
